Experimental data from US20070154567A1, “Use of mercury to treat cancer” (priority 2006, published 2007).
“And” between values parts separate entries of the source, which are not always exact repeats. Equal values may be shown once.

Tested on: metastatic hepatocellular carcinoma
Test: Oral inorganic mercury (II) treatment of a pet Husky after tumor removal: blood data and clinical follow-up
Format: in vivo, dog
Parameters: Corrected Calcium / MCV / MCH / MCHC / Neutrophils, absolute / Bands / Lymphocytes, absolute / Monocytes, absolute / Eosinophils, absolute / Basophils, absolute: unit not given here
Protocol: A 10 yrs old female Husky, 54 lbs was diagnosed with metastatic hepatocellular carcinoma. The tumor was surgically removed prior to treatment. The prognosis after the surgery was poor with 1-2 months of life expectancy.
The 90-day inorganic mercury (II) treatment consisted of two 30-day treatment courses and one 30-day interval period. The formulation contained 1 mM mercury acetate in 20 mM sodium acetate buffer, pH 4.5, with 100 mM sucrose and 150 mM sodium chloride additives. The formulation was introduced orally to the pet three times a day 1 hour before food at 0.5 micromole Hg^2+/kg/day. In the beginning of treatment the dog had high levels of alkaline phosphatase (ALP) and alanine transferase (ALT), two liver enzymes known to be associated with liver tumor progression (de Oliveira e Silva et al., Arq Gastroenterol. 1990, 27(2):83-94). […] On Day 3 ALP and ALT were 1950 U/L and 119 U/L, respectively. On day 30 ALP dropped to 495 U/L, whereas ALT was decreased to 27 U/L. Decreases in ALP and ALT levels were correlated well with the improvement of dog's general condition during the first treatment course. During the second treatment course, according to owner's and veterinarian's notes, the dog continued to show improvement and at the end of the treatment period it acted as a healthy dog. Unfortunately, the owner chose not to take blood tests after day 30.

CC(=O)[O-].CC(=O)[O-].[Hg+2] [inorganic mercury (II), mercury acetate]
health / cancer status of the dog (10 months after treatment): remains in good health and is apparently cancer-free
ALT (SGPT) (Day 3): 119 U/L and 119 (H) U/L
AST (SGOT) (Day 3): 30 U/L
Albumin (Day 3): 3.1 g/dL
Albumin/Globulin Ratio (Day 3): 1.1
Alkaline Phosphatase (ALP) (Day 3): 1950 U/L and 1950 (H) U/L
Amylase (Day 3): 369 U/L
BUN/Creatinine Ratio (Day 3): 17
Bands (Day 3): 0
Basophils, absolute (Day 3): 0
CPK (Day 3): 161 U/L
Calcium (Day 3): 9.4 mg/dL
Chloride (Day 3): 114 mE/L
Cholesterol (Day 3): 250 mg/dL
Corrected Calcium (Day 3): 9.8
Creatinine (Day 3): 1.0 mg/dL
Eosinophils, (%) (Day 3): 7%
Eosinophils, absolute (Day 3): 812
Globulin (Day 3): 2.8 g/dL
Glucose (Day 3): 94 mg/dL
Hematocrit (Day 3): 43.1%
Hemoglobin (Day 3): 14.7 g/dL
Lymphocytes, (%) (Day 3): 18%
Lymphocytes, absolute (Day 3): 2088
MCH (Day 3): 22.3
MCHC (Day 3): 34.1
MCV (Day 3): 65
Monocytes, (%) (Day 3): 4%
Monocytes, absolute (Day 3): 464
Neutrophils, (%) (Day 3): 71%
Neutrophils, absolute (Day 3): 8236
Phosphorus (Day 3): 3.8 mg/dL
Platelet count (Day 3): 394 10^3/microl
Potassium (Day 3): 4.5 mE/L
RBC (Day 3): 6.59 10^6/microl
Sodium (Day 3): 149 mE/L
Total Billirubin (Day 3): 0.1 mg/dL
Total Protein (Day 3): 5.9 g/dL
Urea Nitrogen (Day 3): 17 mg/dL
WBC (Day 3): 11.6 10^3/microl
ALT (SGPT) (Day 9): 51 U/L
AST (SGOT) (Day 9): 18 U/L
Albumin (Day 9): 3.2 g/dL
Albumin/Globulin Ratio (Day 9): 1.1
Alkaline Phosphatase (ALP) (Day 9): 1368 (H) U/L
Amylase (Day 9): 348 U/L
BUN/Creatinine Ratio (Day 9): 8
Bands (Day 9): 0
Basophils, absolute (Day 9): 0
CPK (Day 9): 119 U/L
Calcium (Day 9): 9.8 mg/dL
Chloride (Day 9): 115 mE/L
Cholesterol (Day 9): 237 mg/dL
Corrected Calcium (Day 9): 10.1
Creatinine (Day 9): 1.0 mg/dL
Eosinophils, (%) (Day 9): 3%
Eosinophils, absolute (Day 9): 405
Globulin (Day 9): 3.0 g/dL
Glucose (Day 9): 93 mg/dL
Hematocrit (Day 9): 53.1%
Hemoglobin (Day 9): 17.4 g/dL
Lymphocytes, (%) (Day 9): 15%
Lymphocytes, absolute (Day 9): 2025
MCH (Day 9): 21.8
MCHC (Day 9): 32.8
MCV (Day 9): 67
Monocytes, (%) (Day 9): 3%
Monocytes, absolute (Day 9): 405
Neutrophils, (%) (Day 9): 79%
Neutrophils, absolute (Day 9): 10665
Phosphorus (Day 9): 3.8 mg/dL
Platelet count (Day 9): 406 (H) 10^3/microl
Potassium (Day 9): 4.7 mE/L
RBC (Day 9): 7.97 10^6/microl
Sodium (Day 9): 152 mE/L
Total Billirubin (Day 9): 0.1 mg/dL
Total Protein (Day 9): 6.2 g/dL
Urea Nitrogen (Day 9): 8 mg/dL
WBC (Day 9): 13.5 10^3/microl
ALT (SGPT) (Day 30): 27 U/L
AST (SGOT) (Day 30): 26 U/L
Albumin (Day 30): 3.4 g/dL
Albumin/Globulin Ratio (Day 30): 1.1
Alkaline Phosphatase (ALP) (Day 30): 495 U/L and 495 (H) U/L
Amylase (Day 30): 349 U/L
BUN/Creatinine Ratio (Day 30): 16
Bands (Day 30): 0
Basophils, absolute (Day 30): 0
CPK (Day 30): 488 U/L
Calcium (Day 30): 10.3 mg/dL
Chloride (Day 30): 117 mE/L
Cholesterol (Day 30): 248 mg/dL
Corrected Calcium (Day 30): 10.4
Creatinine (Day 30): 0.9 mg/dL
Eosinophils, (%) (Day 30): 6%
Eosinophils, absolute (Day 30): 504
Globulin (Day 30): 3.0 g/dL
Glucose (Day 30): 113 mg/dL
Hematocrit (Day 30): 50.3%
Hemoglobin (Day 30): 15.8 g/dL
Lymphocytes, (%) (Day 30): 17%
Lymphocytes, absolute (Day 30): 1428
MCH (Day 30): 20.9
MCHC (Day 30): 31.4
MCV (Day 30): 66
Monocytes, (%) (Day 30): 4%
Monocytes, absolute (Day 30): 336
Neutrophils, (%) (Day 30): 73%
Neutrophils, absolute (Day 30): 6132
Phosphorus (Day 30): 3.3 mg/dL
Platelet count (Day 30): 385 10^3/microl
Potassium (Day 30): 4.1 mE/L
RBC (Day 30): 7.57 10^6/microl
Sodium (Day 30): 152 mE/L
Total Billirubin (Day 30): 0.1 mg/dL
Total Protein (Day 30): 6.4 g/dL
Urea Nitrogen (Day 30): 14 mg/dL
WBC (Day 30): 8.4 10^3/microl
levels of ALP and ALT (during the first treatment course): dramatically decreased
